According to the supplement of paper PMC10307832:

These cell lines were tested with CN1CCN(CC1)C2=CC(=C(C=C2)NC3=NC=C4C(=N3)N(C5=CC=CC=C5C(=O)N4C)C)OC [XMD8-85] + Nc1nc2[nH]cc(CCc3ccc(C(=O)N[C@@H](CCC(=O)O)C(=O)O)cc3)c2c(=O)[nH]1 [Pemetrexed] (partner 0.2 µM) (assay: relative viability (nuclei count vs DMSO), 5 days (fraction); higher = more cells survive). Details: first compound 0.08 µM.
Procedure, shortened: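 Nuclei were stained with Hoechst during a one-step fixation (final 0.05% Triton X-100, 1% formaldehyde, 1 ug/ml Hoechst) carried out 5 days after dosing, then counted on 4× images. The cells, lung cancer lines in 1536-well plates, had been dosed by pin tool the day after seeding with one drug alone or a fixed anchor-drug dose plus five library-drug doses (not always all listed) in √10 steps. Relative viability is the nuclei count in treated wells divided by that in vehicle wells, and each value is the median of duplicate plates.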

Cell Line	relative viability
CAL-12T	0.956
COR-L23	0.187
COR-L 105	1.01
ChaGo-K-1	0.276
EKVX	0.276
EMC-BAC-2	0.391
EPLC-272H	0.279
H3255	0.558
HARA	0.26
HCC-15	0.202
HCC-44	0.65
HCC-78	0.915
HCC-366	0.147
HCC-827	0.284
HOP-62	0.307
LC-2-ad	0.261
LCLC-97TM1	0.153
LCLC-103H	0.426
LK-2	0.322
NCI-H358	0.165
NCI-H522	0.762
NCI-H1395	0.768
NCI-H1563	0.718
NCI-H1944	0.517
NCI-H2170	0.258
NCI-H2342	0.808
SK-MES-1	0.857
SW 900	0.46

Same assay, conditions: first compound 0.253 µM

Cell Line	relative viability
201T	0.329
A-427	1.02
BEN	0.771
CAL-12T	1.15
COR-L23	0.2
COR-L 105	1.16
ChaGo-K-1	0.268
EKVX	0.347
EMC-BAC-2	0.423
EPLC-272H	0.318
HARA	0.227
HCC-15	0.216
HCC-44	0.701
HCC-78	0.892
HCC-366	0.163
HCC-827	0.251

Cell Line	relative viability
HOP-62	0.358
LC-2-ad	0.26
LCLC-97TM1	0.17
LCLC-103H	0.452
LK-2	0.289
NCI-H358	0.176
NCI-H522	0.916
NCI-H1395	0.744
NCI-H1563	0.809
NCI-H1648	0.693
NCI-H1793	0.824
NCI-H1944	0.72
NCI-H2170	0.28
NCI-H2342	0.805
SK-MES-1	1.08
SW 900	0.505

Same assay, conditions: first compound 0.8 µM

Cell Line	relative viability
201T	0.368
A-427	1.08
BEN	0.696
COR-L23	0.199
COR-L 105	1.21
ChaGo-K-1	0.26
EKVX	0.382
EMC-BAC-2	0.45
EPLC-272H	0.314
H3255	0.525
HARA	0.307
HCC-15	0.212
HCC-44	0.647
HCC-78	0.906
HCC-366	0.146
HCC-827	0.266
HOP-62	0.349
LC-2-ad	0.253
